A short description of series [1]: MAP4343 in the brain after TBI (LC-MS/MS). The class given is in vivo, rat. The note with it: 20 mg/kg single injection 2 h after TBI; 4 h after injection; CHI, LFP, CCI models. On the procedure:
FIG. 16: 3-methoxy-PREG (MAP4343) concentrations in the brain 4 h after a single injection of MAP4343 (20 mg/kg, injected 2 h after TBI or sham-surgery).
MAP4343 was dissolved in sesame oil and injected subcutaneously. Two distinct doses of MAP4343 (10 and 20 mg/kg) were tested in each model. The injection took place 2 h after trauma.
In order to establish whether TBI modifies the passage of MAP4343 into the brain, MAP4343 was measured by liquid chromatography associated to tandem mass spectrometry (LC-MS/MS) in the brain of animals sacrificed 6 h after CHI, LFP or CCI (4 h after MAP4343 single injection).
In order to establish whether TBI modifies the passage of 3-methoxy-PREG (MAP4343) into the brain, MAP4343 was measured by liquid chromatography coupled to tandem mass spectrometry LC-MS/MS in the brain of animals sacrificed 6 h after CHI, LFP or CCI (4 h after MAP4343 injection).

Series [2] deals with PC12 cells. In words: Retraction of neurites induced by nocodazole. The class given is cell-based, rat. The note with it: pretreated one hour at 30 μM, nocodazole 15 minutes. An excerpt:
FIG. 5: Retraction of neurites (neurites) induced by nocodazole.
Nocodazole is a microtubule depolymerizing agent. Its addition to PC12 cell cultures, differentiated in the presence of NGF, causes neurites to retract as a result of the depolymerization of their microtubules.

Series [3] can be described thus: Pharmacokinetics, GC/MS assay in brain and spinal cord. The settings on record: rats, 12 mg/kg subcutaneous in sesame oil; 1, 4, 8, 24 hours. The class given is in vivo, rat. On the procedure: FIG. 9: Kinetics of the appearance of 3-methoxy-PREG (43B) in rat brain and spinal cord following subcutaneous injection of 43B (12 mg/kg) in a sesame oil solution.
The pharmacokinetics of the molecules tested in vivo are evaluated using gas chromatography/mass spectrometry (GC/MS) assays.

Series [4] has as its target MAP2 (Homo sapiens, UniProt P11137). Put plainly: Binding (affinity) by displacement of PREG-^3H. How it is done: Binding (affinity) is measured by the displacement of PREG-^3H.
For series [5], the system named is Sprague Dawley rats, recognition memory. In words: Novel object recognition test (NOR). The class given is in vivo, rat. How it is done: FIG. 14: 3-methoxy-PREG (43B) enhanced retention of recognition memory in naïve animals and recovered recognition memory deficits in social isolated rats. (A) Sesame Oil treated rats cannot discriminate between the novel and the familiar object following a 4 h inter trial interval (ITI) time. In contrast, 43B (10 mg/kg subcutaneously) treated rats retain the ability to discriminate between the novel and the familiar object. Mean±SEM, n=11-12 per group. ***p<0.001 vs sesame oil (T-test). (B) Isolated animals treated with sesame oil cannot discriminate between the novel and the familiar object following […], while grouped (control) rats clearly discriminate. […]
Cognitive dysfunction, including impaired recognition memory, are common features in depressed patients (Egeland et al., Scand. J. Psychol. 2005). […] Recognition memory was assessed using the NOR test which is a two-trial test of recognition memory based on the spontaneous preference of rats for novelty (Ennaceur and Delacour, Behav. Brain. Res. 1988; Bianchi et al., EJN 2006). […] The ability of the animals to discriminate between the novel and the familiar object is then expressed as: D2-INDEX: [novel object (sec)-familiar object (sec)]/[novel object (sec)+familiar object (sec)] […]

Series [6] deals with α-tubulin forms (Tyr/Glu-Tub, Acet-Tub) in rat hippocampus. Put plainly: Microtubule dynamics in rat hippocampus after single administration. The class given is in vivo. The note with it: 10 mg/kg subcutaneously, 3 h following injection. An excerpt:
Mean±SEM, n=6 per group. **p<0.01, *[…] vs sesame oil.
The effects produced by neurosteroids were compared with those produced by acute administration of the antidepressant drug fluoxetine (selective serotonin reuptake inhibitor; SSRI).

Structures are written as SMILES.

Here are results for 1 compound from patent publication US20140045807A2, “THE USE OF 3-METHOXY-PREGNENOLONE FOR THE PREPARATION OF A DRUG FOR TREATING A TRAUMATIC BRAIN INJURY” (priority 2004, published 2014).

MAP2, sequence (P11137 whole entry): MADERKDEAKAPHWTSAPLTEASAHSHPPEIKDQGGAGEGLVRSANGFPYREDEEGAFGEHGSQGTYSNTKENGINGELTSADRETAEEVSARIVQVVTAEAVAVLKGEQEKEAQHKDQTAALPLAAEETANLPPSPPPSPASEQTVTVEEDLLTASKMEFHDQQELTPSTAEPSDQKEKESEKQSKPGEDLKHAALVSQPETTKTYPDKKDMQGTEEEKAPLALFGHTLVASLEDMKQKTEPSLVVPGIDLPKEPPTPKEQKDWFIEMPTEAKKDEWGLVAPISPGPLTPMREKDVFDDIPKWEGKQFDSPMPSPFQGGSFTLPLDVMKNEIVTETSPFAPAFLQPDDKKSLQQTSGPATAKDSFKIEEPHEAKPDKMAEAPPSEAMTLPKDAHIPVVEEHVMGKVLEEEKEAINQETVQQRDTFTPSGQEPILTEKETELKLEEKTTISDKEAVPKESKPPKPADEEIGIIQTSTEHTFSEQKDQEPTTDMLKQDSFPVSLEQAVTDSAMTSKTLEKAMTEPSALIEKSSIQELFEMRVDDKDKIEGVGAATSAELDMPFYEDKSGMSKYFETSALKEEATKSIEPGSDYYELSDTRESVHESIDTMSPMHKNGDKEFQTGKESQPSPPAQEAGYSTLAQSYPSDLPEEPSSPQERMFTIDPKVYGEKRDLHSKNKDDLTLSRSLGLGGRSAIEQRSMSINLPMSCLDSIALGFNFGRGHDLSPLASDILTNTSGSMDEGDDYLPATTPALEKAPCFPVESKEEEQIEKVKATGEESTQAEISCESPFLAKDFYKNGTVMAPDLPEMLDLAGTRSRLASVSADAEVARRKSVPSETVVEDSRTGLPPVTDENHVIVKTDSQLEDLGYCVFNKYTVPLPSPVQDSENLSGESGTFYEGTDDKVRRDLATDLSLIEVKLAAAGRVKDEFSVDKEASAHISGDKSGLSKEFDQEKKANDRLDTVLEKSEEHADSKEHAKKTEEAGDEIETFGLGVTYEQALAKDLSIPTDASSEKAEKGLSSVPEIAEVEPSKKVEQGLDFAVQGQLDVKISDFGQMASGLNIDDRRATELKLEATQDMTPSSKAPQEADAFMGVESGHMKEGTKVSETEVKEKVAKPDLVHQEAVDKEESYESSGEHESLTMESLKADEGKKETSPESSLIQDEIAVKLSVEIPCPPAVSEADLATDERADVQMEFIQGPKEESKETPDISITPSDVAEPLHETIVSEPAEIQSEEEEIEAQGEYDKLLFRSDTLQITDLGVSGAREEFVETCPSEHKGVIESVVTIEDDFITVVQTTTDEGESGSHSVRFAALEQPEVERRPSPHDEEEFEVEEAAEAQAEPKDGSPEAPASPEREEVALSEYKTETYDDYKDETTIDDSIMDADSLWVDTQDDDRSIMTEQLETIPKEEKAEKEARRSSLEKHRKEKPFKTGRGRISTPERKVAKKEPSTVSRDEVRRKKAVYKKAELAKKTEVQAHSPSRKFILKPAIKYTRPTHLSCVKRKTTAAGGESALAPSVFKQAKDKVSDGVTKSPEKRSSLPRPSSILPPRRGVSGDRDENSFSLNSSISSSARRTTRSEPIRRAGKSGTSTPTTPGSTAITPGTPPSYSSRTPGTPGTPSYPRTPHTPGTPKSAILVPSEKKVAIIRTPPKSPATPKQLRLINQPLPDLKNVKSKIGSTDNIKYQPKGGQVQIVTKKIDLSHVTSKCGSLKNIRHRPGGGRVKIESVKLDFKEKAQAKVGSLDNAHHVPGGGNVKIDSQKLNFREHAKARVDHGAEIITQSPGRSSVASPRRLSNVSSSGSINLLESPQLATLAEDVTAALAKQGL

In the case of `CO[C@H]1CC[C@@]2(C)C(=CC[C@H]3[C@@H]4CC[C@H](C(C)=O)[C@@]4(C)CC[C@@H]32)C1` [3-methoxy-PREG, 3β-methoxy-pregna-5-ene-20-one], in series [1], the “MAP4343 concentrations in the brain” value is “concentrations of MAP4343 of significant therapeutic interest reach the brain”. Moreover, the “resistance of neurites to nocodazole” value in series [2] is “makes the neurites resistant to nocodazole”. In addition, in series [3], the “penetration into spinal cord and brain” value is “penetrates rapidly into the spinal cord and the brain”. For the same compound, the “Affinity (index of binding)” value in series [4] is 100% of PREG. Besides, the “discrimination of novel and familiar object, social isolated rats” value in series [5] (10 mg/kg subcutaneously 1 h before task, ITI of 1 h) was “efficiently discriminated between the familiar and the novel object”. In addition, the “discrimination of novel and familiar object, naïve animals” value in series [5] (10 mg/kg subcutaneously immediately after T1, ITI of 4 h) is “discriminated between the novel and the familiar object”. Besides, in series [6], the “Acet-Tub (marker of stable microtubules)” value is recorded as “significantly decreased” and the “Tyr/Glu-Tub ratio (index of microtubule dynamics)” value is reported as “significantly increased”.
